PMC5913645, “Methyl phenlactonoates are efficient strigolactone analogs with simple structure” (Journal of Experimental Botany, 2017)
pEC50: −log10 of the molar value. “Also recorded” adds a separate entry of the source.

What was measured:
[1] = tested on: parasite seed; settings: ref Fukui et al., 2013; cited from earlier work
[2] = tested on: S. hermonthica seeds; experiment: Striga hermonthica seed germination bioassay; assay type: in vivo; settings: for pEC50: Striga hermonthica, concentrations 10^–5 to 10^–12 M; for germination activity, order among the chlorophenyl compounds: species not given
Description: Parasitic weed seeds’ (S. hermonthica and P. ramosa) germination activity was studied as described previously ([Jamil et al., 2012]). Six pre-conditioned seed discs were placed in a 90 mm Petri dish containing a filter paper ring wetted with 0.9 ml sterile MilliQ water. Then 50 μl of SL analog solution (10^–5–10^–12 M) was applied on each of the six discs, for each concentration. GR24 solutions with equal concentrations and sterile MilliQ water were included as a positive and negative control, respectively. After application, seeds of S. hermonthica and P. ramosa were incubated in dark at 30 °C for 2 d and at 25 °C for 4 d, respectively. Germination (seeds with radicle emerging through the seed coat) was scored under a binocular microscope, and germination rate (%) was calculated. Statistical analyses were carried out using the statistical software package R (version 3.2.2). Dose–response curves and half-maximum effective concentrations (EC50) were calculated to determine optimum amount of MPs. The synthetic strigolactone analog GR24 was used as reference to estimate efficacy of selected compounds. EC50 and estimated response were calculated using the drc package (https://cran.r-project.org/web/packages/drc/) with a four parameter logistic curve (dose–response curve) ([Ritz and Streibig, 2005]).

[3] = tested on: P. ramosa seeds; experiment: P. ramosa seed germination bioassay; assay type: in vivo, Phelipanche ramosa; settings: 1.0 μM
Description: Parasitic weed seeds’ (S. hermonthica and P. ramosa) germination activity was studied as described previously ([Jamil et al., 2012]). Six pre-conditioned seed discs were placed in a 90 mm Petri dish containing a filter paper ring wetted with 0.9 ml sterile MilliQ water. Then 50 μl of SL analog solution (10^–5–10^–12 M) was applied on each of the six discs, for each concentration. GR24 solutions with equal concentrations and sterile MilliQ water were included as a positive and negative control, respectively. After application, seeds of S. hermonthica and P. ramosa were incubated in dark at 30 °C for 2 d and at 25 °C for 4 d, respectively. Germination (seeds with radicle emerging through the seed coat) was scored under a binocular microscope, and germination rate (%) was calculated.

[4] = tested on: rice d10 mutant; experiment: Rice micro tillering bioassay, d10 mutant; assay type: in vivo; settings: 2.5 μM
Description: Rice seeds (WT, d3, d10) were surface-sterilized by washing with 70% ethanol for 1 min and then with 2.5% sodium hypochlorite for 15 min. Seeds were then rinsed thoroughly with sterile MilliQ water and incubated in water for 2 d at 30 °C in the dark. Pre-germinated seeds were transferred to filter papers containing half-strength MS medium in 90 mm Petri dishes and incubated at 30 °C under fluorescent white light (130–180 μmol m^−2 s^−1) for 1 week. Seven-day-old seedlings were transferred to 50 ml falcon tubes (one seedling per tube) containing modified half-strength Hoagland nutrient solution and grown in greenhouse. Plants were treated with MPs at 2.5 μM to 2.5 × 10^–7 μM, using GR24 as positive control. The compounds were applied six times, twice a week. Number of tillers per plant, plant height and fresh biomass were measured at final harvest.
Statistical analyses were carried out using the statistical software package R (version 3.2.2). Dose–response curves and half-maximum effective concentrations (EC50) were calculated to determine optimum amount of MPs. The synthetic strigolactone analog GR24 was used as reference to estimate efficacy of selected compounds. EC50 and estimated response were calculated using the drc package (https://cran.r-project.org/web/packages/drc/) with a four parameter logistic curve (dose–response curve) ([Ritz and Streibig, 2005]).

[5] = Chemical stability in aqueous solution (UHPLC); assay type: physicochemical; settings: aqueous solution pH 6.8, 21 °C, 50 μg ml^−1, monitored at 24 h intervals up to 3 weeks
Description: Aqueous solutions of MPs (50 μg ml^−1; pH 6.8) were incubated at 21 °C in amber HPLC vials (adapted from [de Saint Germain et al., 2016]). For sample preparation, 50 μl of an acetone solution (1 mg ml^−1) was diluted to the final concentration with methanol (425 μl), water (500 μl) and 25 μl of 1-indanol (1.0 mg ml^−1 solution in acetone) as internal standard. […] Compounds eluted from the column were detected with a diode array detector. The relative quantity of remaining (non-degraded) product was determined by comparison with the internal standard. Stability was monitored at 24 h intervals up to 3 weeks.

[6] = tested on: Arabidopsis seedlings; experiment: Arabidopsis lateral root density; assay type: in vivo; settings: 1.0 μM, 8-day-old seedlings
Description: Sterilized Arabidopsis seeds were sown on half-strength MS (with 0.5% sucrose+1% agar, 0.5 g l^−1 MES, pH 5.7) plates supplemented with GR24 or MPs (at 1.0 μM). Plates were stored at 4 °C in darkness for 3 d and then vertically grown at 22 °C in a Percival incubator under long day condition (16 h at 22 °C/8 h at 16 °C day/night, 60% relative humidity, 60–70 μmol m^−2 s^−1 white light) for 8 d. For determining the effect on lateral root density and primary root length, at least 30 seedlings were measured using ImageJ software after scanning roots.

[7] = tested on: Arabidopsis seedlings; experiment: Arabidopsis hypocotyl elongation assay; assay type: in vivo; settings: 1.0 μM, continuous red light
Description: Sterilized Arabidopsis seeds were sown on half-strength MS (with 0.5% sucrose+1% agar, 0.5 g l^−1 MES, pH 5.7) plates supplemented with MPs or GR24 (at 1.0 μM). Plates were stored at 4 °C in darkness for 3 d. To initiate germination, plates were exposed to continuous white light for 24 h, then transferred to continuous monochromatic red light (20 μmol m^−2 s^−1, 22 °C) conditions for another 4 d. For hypocotyl length measurement, at least 30 seedlings were measured using the freely available ImageJ software (http://rsbweb.nih.gov/ij/) after taking digital photographs. A monochromatic red light source was applied as described previously ([Wu and Yang, 2010]). Light flow rates were measured using a Li250 quantum photometer (Li-Cor, Lincoln, NE, USA).

[8] = tested on: S. hermonthica seeds; settings: cited from earlier work
[9] = tested on: P. ramosa seeds; set-up: method as in Wigchert et al., 1999; settings: ref Wigchert et al., 1999; cited from earlier work
[10] = tested on: Arabidopsis seedlings; set-up: method as in Jia et al. (2016); settings: ref Jia et al., 2016; cited from earlier work

## CC1=CC(Oc2ccc(Br)cc2)OC1=O (centres unmarked) [4-Br-debranone]
[1]
  activity in inducing parasite seed germination: moderate activity

## COC(=O)/C(=C/OC1C=C(C)C(=O)O1)c1ccccc1[N+](=O)[O-] (centres unmarked) [MP2]
[2]
  pEC50: 7.49
[3]
  P. ramosa germination activity: much higher activity
[4]
  growth, senescence symptoms and biomass of rice seedlings: stunted the growth and caused senescence symptoms
[5]
  stability in comparison with GR24: more stable than GR24

## COC(=O)/C(=C/OC1C=C(C)C(=O)O1)c1ccc(C)cc1 (centres unmarked) [MP4]
[5]
  stability in comparison with GR24: more stable than GR24

## CC1=CC(O/C=C2/C(=O)OCc3ccccc32)OC1=O (centres unmarked) [MP5]
[5]
  stability in comparison with GR24: more stable than GR24; also recorded: most stable compound

## COC(=O)/C(=C/OC1C=C(C)C(=O)O1)c1cccc(F)c1 (centres unmarked) [MP6]
[4]
  growth, senescence symptoms and biomass of rice seedlings: stunted the growth and caused senescence symptoms

## COC(=O)/C(=C/OC1C=C(C)C(=O)O1)c1cccc(Cl)c1 (centres unmarked) [MP8]
[2]
  germination activity, order among the chlorophenyl compounds: highest germination activity with MP7 (Cl in para position) followed by MP9 (ortho position) and MP8 (meta position)
[6]
  reduction of lateral root number/density: slightly more active than GR24
[3]
  P. ramosa germination activity: much higher activity
[5]
  stability in comparison with GR24: very similar to that of GR24

## COC(=O)/C(=C/OC1C=C(C)C(=O)O1)c1ccccc1Cl (centres unmarked) [MP9]
[2]
  germination activity, order among the chlorophenyl compounds: highest germination activity with MP7 (Cl in para position) followed by MP9 (ortho position) and MP8 (meta position)
[4]
  growth, senescence symptoms and biomass of rice seedlings: stunted the growth and caused senescence symptoms
[5]
  stability in comparison with GR24: very similar to that of GR24

## COC(=O)/C(=C\OC1C=C(C)C(=O)O1)c1ccccc1Cl (centres unmarked) [MP10]
[4]
  growth, senescence symptoms and biomass of rice seedlings: stunted the growth and caused senescence symptoms
[5]
  stability in comparison with GR24: more stable than GR24

## COC(=O)C(=COC1C=C(C)C(=O)O1)c1cccc2ccccc12 (centres unmarked) [MP11]
[2]; 1.0 μM
  S. hermonthica germination rate: 32%
[2]
  pEC50: 5.77
[5]
  stability in comparison with GR24: very similar to that of GR24

## CC1=CC(O/C=C(/C=O)c2ccc([N+](=O)[O-])cc2)OC1=O (centres unmarked) [MP12, (E)-3-(4-methyl-5-oxo-2,5-dihydrofuran-2-yloxy)-2-(4-nitrophenyl)acrylaldehyde]
[7]
  inhibition of hypocotyl growth: Apart from MP12 and MP15, all MPs showed significant inhibition
[5]
  stability in comparison with GR24: quite unstable and not detectable even after only 24 h

## COC(=O)/C(=C/OC1C=C(C)C(=O)O1)c1ccc(OC)cc1 (centres unmarked) [MP14]
[5]
  stability in comparison with GR24: very similar to that of GR24

## COC(=O)/C(=C/OC1C=C(C)C(=O)O1)c1ccc(O)cc1 (centres unmarked) [MP15]
[7]
  inhibition of hypocotyl growth: Apart from MP12 and MP15, all MPs showed significant inhibition
[5]
  stability in comparison with GR24: slightly less stable than GR24

## COC(=O)/C(=C/O[C@H]1C=C(C)C(=O)O1)N1C(=O)c2ccccc2C1=O [Nijmegen-1]
[8]; ref Wigchert et al., 1999
  EC50 for S. hermonthica germination relative to GR24: three orders of magnitude higher than GR24
[9]
  seed germination in P. ramosa: potent inducer

## CC1=CC(O/C=C(/C)c2ccc([N+](=O)[O-])cc2)OC1=O (centres unmarked) [nitro-phenlactone]
[10]
  effect on lateral root density: did not affect lateral root density
[8]; ref Jia et al., 2016
  activity in stimulating S. hermonthica germination: very weak activity
